Laboratory results reported in US10465171B2, “7β-hydroxysteroid dehydrogenases and their use” (PharmaZell GmbH, priority 2009, dated 2019).
Entries after “also recorded” stand apart in the source; their conditions may differ.

Legend:
[1] = target: 7β-HSDH from Collinsella aerofaciens ATCC 25986 (DSM 3979) (Collinsella aerofaciens, UniProt A4ECA9); test: Photometric identification of 7β-HSDH activity (cell extract of E. coli expressing the candidate); format: biochemical; conditions: 0.1 mM test substance, potassium phosphate buffer 50 mM pH 8, in the presence of NADP+ or NADPH
Description: The expression was performed in 50 ml of LB medium. For the preparation of preculture, one colony on an LB agar plate was picked and incubated overnight at 37° C. and 160 Rpm in 5 ml of LB medium (contains relevant antibiotics) a. The 50 ml of LB medium (contains relevant antibiotics) was inoculated with 500 pi of preculture. The culture was incubated at 37° C. and 160 Rpm. Up to OD600 ca. 0.8, expression was induced by addition of 0.5 mM IPTG. After 6 hrs or one night, the cells were centrifuged down. The pellets were resuspended in 6 ml of potassium phosphate buffer (50 mM, pH 8, contains 0.1 mM PMSF) and disintegrated with ultrasound. The cell fragments were removed by centrifugation.
For the identification of 7β-HSDH activity the activity was tested by photometric methods. For this, enzyme and 0.1 mM of test substance (UDCA) in potassium phosphate buffer (50 mM, pH 8) were mixed in a 1 ml cuvette. After addition of NADPH(NADH) or NADP^+ (NAD^+), the degradation or formation of NAD(P)H was measured.

[2] = target: T1, 7β-HSDH from Collinsella aerofaciens DSM 3979 (Collinsella aerofaciens, UniProt A4ECA9); test: Preparative biotransformation of 7-keto-LCA by 7β-HSDH with ADH cofactor regeneration, HPLC analysis; format: biochemical; conditions: 0.4 g 7-keto-LCA, 100 U 7β-HSDH, 24° C., 24 hours, pH 8
Description: The conversion of 7-keto-LCA by 7β-HSDH was performed in order to verify the biochemical function of 7β-HSDH. 0.4 g of 7-keto-LCA were suspended in 10 ml of potassium phosphate buffer (50 mM, pH 8) and the pH was adjusted to pH 8 by addition of 2M sodium hydroxide. 0.2 ml of isopropanol, 100 U of 7β-HSDH and 80 U of alcohol dehydrogenase (ADH-TE) from Thermoanaerobacter ethanolicus (kindly donated by Dr. K. Momoi, ITB University, Stuttgart) and 1 μmol NADP^+ were added. The same buffer was added, so as to obtain a total reaction volume of 20 ml. The reaction mixture was incubated at 24° C. and stirred for 24 hours. During this, NADPH was regenerated by means of ADH via the oxidation of 2-propanol. […]
An HPLC analysis was performed on a column of the Purospher® STAR RP-18 type (Hitbar® RT 125-4 Pre-Packed Column, Purospher® STAR RP-18 endcapped, Merck, Germany), equipped with a precolumn of the LiChroCART® STAR RP18 type (endcapped, Merck, Germany) on an LC20AD HPLC system (Shimadzu, Japan) at a flow rate of 1 ml/min. […] 20 μl sample (1 mg/ml) were analyzed. […]
To confirm the function of the enzyme, a biotransformation of 7-keto-LCA on the […] was performed, wherein the isolated enzyme was used in combination with ADH for the regeneration of NADPH with the use of 2-propanol, as already described. […] CDCA (retention time 19.4 min) was not detected in the reaction mixture.

[3] = target: T1, 7β-HSDH from Collinsella aerofaciens DSM 3979; format: biochemical
[4] = test system: 7β-HSDH enzyme from C. aerofaciens ATCC25986 described by Hirano et al; design: unit not given here; conditions: enzyme of Hirano et al; cited from earlier work

Sequence of 7β-HSDH from Collinsella aerofaciens ATCC 25986 (DSM 3979) (A4ECA9 whole entry): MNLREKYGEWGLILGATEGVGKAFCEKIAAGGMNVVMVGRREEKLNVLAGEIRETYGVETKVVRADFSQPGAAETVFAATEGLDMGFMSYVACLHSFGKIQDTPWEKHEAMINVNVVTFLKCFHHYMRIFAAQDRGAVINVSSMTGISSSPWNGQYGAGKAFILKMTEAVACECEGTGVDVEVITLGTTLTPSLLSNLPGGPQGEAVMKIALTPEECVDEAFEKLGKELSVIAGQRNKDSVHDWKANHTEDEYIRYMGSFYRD
T1 sequence (A4ECA9 whole entry): as above

Row | Compound | activity [1] | kcat [3] | other results
1 | C[C@H](CCC(=O)O)[C@H]1CC[C@H]2[C@@H]3C(=O)C[C@@H]4C[C@H](O)CC[C@]4(C)[C@H]3CC[C@]12C [7-keto-LCA, 7-keto-lithocholic acid] | 35 U/ml | – | conversion to UDCA [2]: 90%
2 | C[C@H](CCC(=O)O)[C@H]1CC[C@H]2[C@@H]3[C@H](O)C[C@@H]4C[C@H](O)CC[C@]4(C)[C@H]3C[C@H](O)[C@]12C [CA, Cholic acid] | no activity; also recorded: not detectable | – | –
3 | C[C@H](CCC(=O)O)[C@H]1CC[C@H]2[C@@H]3C(=O)C[C@@H]4CC(=O)CC[C@]4(C)[C@H]3CC(=O)[C@]12C [DHCA, Dehydrocholic acid] | 119 U/ml | – | –
4 | NC(=O)C1=CN([C@@H]2O[C@H](COP(=O)(O)OP(=O)(O)OC[C@H]3O[C@@H](n4cnc5c(N)ncnc54)[C@H](O)[C@@H]3O)[C@@H](O)[C@H]2O)C=CC1 [NADH] | – | traces | activity as coenzyme [3]: very low activity
5 | NC(=O)c1ccc[n+]([C@@H]2O[C@H](COP(=O)([O-])OP(=O)(O)OC[C@H]3O[C@@H](n4cnc5c(N)ncnc54)[C@H](OP(=O)(O)O)[C@@H]3O)[C@@H](O)[C@H]2O)c1 [NADP^+] | – | – | Vmax [3]: 30.58 U/mg protein; Vmax [4]: 0.2
6 | NC(=O)c1ccc[n+]([C@@H]2O[C@H](COP(=O)([O-])OP(=O)(O)OC[C@H]3O[C@@H](n4cnc5c(N)ncnc54)[C@H](O)[C@@H]3O)[C@@H](O)[C@H]2O)c1 [NAD^+] | – | traces | activity as coenzyme [3]: very low activity
7 | C[C@H](CCC(=O)O)[C@H]1CC[C@H]2[C@@H]3[C@@H](O)C[C@@H]4C[C@H](O)CC[C@]4(C)[C@H]3CC[C@]12C [UDCA, Ursodeoxycholic acid] | 60 U/ml | – | –
8 | NADPH | – | 1033.44 1 μmol/(μmol × min) | Vmax [3]: 33.44 U/mg protein
